How the values were obtained:
Assay in all cases: relative viability (nuclei count vs DMSO), 5 days (fraction); higher = more cells survive
[1] = compound: CN(C)C[C@@H]1CCn2cc(c3ccccc32)C2=C(C(=O)NC2=O)c2cn(c3ccccc23)CCO1 [Ruboxistaurin] + CC1(C)CCC(c2ccc(Cl)cc2)=C(CN2CCN(c3ccc(C(=O)NS(=O)(=O)c4ccc(N[C@H](CCN5CCOCC5)CSc5ccccc5)c(S(=O)(=O)C(F)(F)F)c4)cc3)CC2)C1 [Navitoclax] (partner 0.5 µM)
Summary of the method: (§1)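 One day after seeding in 1536-well plates, lung cancer cell lines were dosed by pin tool. Dosing was either single-drug or a fixed anchor-drug dose plus five library-drug doses (not always all listed) in √10 steps. After 5 days, nuclei were stained in one fix-and-stain step and counted on 4× images, and relative viability is the nuclei count of treated wells over that of vehicle wells, given as the median of duplicate plates.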

[2] = compound: CN(C)C[C@@H]1CCn2cc(c3ccccc32)C2=C(C(=O)NC2=O)c2cn(c3ccccc23)CCO1 [Ruboxistaurin] + Nc1ncn([C@H]2C[C@H](O)[C@@H](CO)O2)c(=O)n1 [Decitabine] (partner 2 µM)
Summary of the method: as §1

[3] = compound: CN(C)C[C@@H]1CCn2cc(c3ccccc32)C2=C(C(=O)NC2=O)c2cn(c3ccccc23)CCO1 [Ruboxistaurin] + CCNC(=O)c1noc(-c2cc(C(C)C)c(O)cc2O)c1-c1ccc(CN2CCOCC2)cc1 [Luminespib] (partner 0.01 µM)
Summary of the method: as §1

Ruboxistaurin + AZD7762 = compound: CN(C)C[C@@H]1CCn2cc(c3ccccc32)C2=C(C(=O)NC2=O)c2cn(c3ccccc23)CCO1 [Ruboxistaurin] + NC(=O)Nc1cc(-c2cccc(F)c2)sc1C(=O)N[C@H]1CCCNC1 [AZD7762] (partner 0.2 µM)
Summary of the method: as §1

[4] = compound: CN(C)C[C@@H]1CCn2cc(c3ccccc32)C2=C(C(=O)NC2=O)c2cn(c3ccccc23)CCO1 [Ruboxistaurin] + CC(=O)Nc1cccc(-n2c(=O)n(C3CC3)c(=O)c3c(Nc4ccc(I)cc4F)n(C)c(=O)c(C)c32)c1 [Trametinib] (partner 0.02 µM)
Summary of the method: as §1

| Cell Line | relative viability ([1]; first compound 0.08 µM) | relative viability ([1]; first compound 0.8 µM) | relative viability ([1]; first compound 2.53 µM) | relative viability ([1]; first compound 8 µM) | relative viability ([2]; first compound 0.08 µM) | relative viability ([2]; first compound 0.8 µM) | relative viability ([2]; first compound 2.53 µM) | relative viability ([2]; first compound 8 µM) | relative viability ([3]; first compound 0.08 µM) | relative viability ([3]; first compound 0.8 µM) | relative viability ([3]; first compound 2.53 µM) | relative viability ([3]; first compound 8 µM) | relative viability (Ruboxistaurin + AZD7762; first compound 0.08 µM) | relative viability (Ruboxistaurin + AZD7762; first compound 0.8 µM) | relative viability (Ruboxistaurin + AZD7762; first compound 2.53 µM) | relative viability (Ruboxistaurin + AZD7762; first compound 8 µM) | relative viability ([4]; first compound 0.08 µM) | relative viability ([4]; first compound 0.8 µM) | relative viability ([4]; first compound 2.53 µM) | relative viability ([4]; first compound 8 µM) |
| --- | --- | --- | --- | --- | --- | --- | --- | --- | --- | --- | --- | --- | --- | --- | --- | --- | --- | --- | --- | --- |
| A549 | 1.23 | 1.18 | 1.16 | 0.99 | 0.264 | 0.217 | 0.307 | 0.305 | – | – | – | – | – | – | – | – | – | – | – | – |
| ABC-1 | – | – | – | – | 1.19 | 0.696 | 1.26 | 0.942 | 0.773 | 0.823 | 0.564 | 0.669 | 0.662 | 0.894 | 0.771 | 0.598 | – | – | – | – |
| COR-L23 | 1.16 | 1.01 | 1.03 | 0.998 | 0.427 | 0.384 | 0.467 | 0.487 | 0.799 | 0.55 | 0.714 | 0.632 | – | – | – | – | 0.749 | 0.581 | 0.571 | 0.59 |
| COR-L 105 | 0.741 | 0.64 | 0.776 | 0.807 | 0.618 | 0.595 | 0.681 | 0.611 | 1.06 | 0.784 | 0.681 | 0.941 | – | – | – | – | 0.43 | 0.364 | 0.463 | 0.441 |
| LCLC-103H | – | – | – | – | 0.805 | 0.648 | 0.726 | 0.699 | 1.02 | 0.791 | 0.934 | 0.808 | 0.869 | 0.744 | 0.788 | 0.775 | 0.703 | 0.621 | 0.633 | 0.678 |
| NCI-H358 | – | – | – | – | 0.227 | 0.205 | 0.246 | 0.256 | 0.498 | 0.32 | 0.242 | 0.386 | 0.593 | 0.48 | 0.519 | 0.49 | 0.159 | 0.116 | 0.125 | 0.112 |
| NCI-H520 | 1.24 | 0.984 | 1.19 | 0.955 | 0.535 | 0.477 | 0.544 | 0.612 | 0.227 | 0.182 | 0.227 | 0.225 | – | – | – | – | 0.831 | 0.627 | 0.808 | 0.617 |
| NCI-H522 | – | – | – | – | 0.753 | 0.671 | 0.667 | 0.658 | 1.23 | 1.1 | 0.974 | 1.04 | 0.987 | 0.804 | 0.833 | 0.81 | 0.767 | 0.586 | 0.754 | 0.764 |
| NCI-H650 | – | – | – | – | 0.312 | 0.343 | 0.296 | 0.34 | 0.841 | 0.7 | 0.875 | 0.938 | 1.09 | 1.06 | 1.06 | 0.953 | 1.1 | 0.914 | 1.01 | 0.952 |
| NCI-H661 | – | – | – | – | 0.563 | 0.555 | 0.578 | 0.61 | 0.883 | 0.817 | 0.942 | 1.01 | – | – | – | – | 0.667 | 0.528 | 0.681 | 0.703 |
| NCI-H1650 | 1.09 | 1.2 | 1.34 | 1.2 | 0.387 | 0.524 | 0.501 | 0.468 | 0.185 | 0.207 | 0.189 | 0.183 | – | – | – | – | 0.698 | 0.447 | 0.613 | 0.571 |
| NCI-H1703 | 1.14 | 0.992 | 0.991 | 0.525 | – | – | – | – | – | – | – | – | 0.111 | 0.115 | 0.122 | 0.119 | – | – | – | – |
| NCI-H2009 | 1.21 | 1.16 | 1.18 | 1.17 | 0.39 | 0.371 | 0.411 | 0.406 | 1.14 | 1.01 | 0.984 | 1.15 | – | – | – | – | 0.328 | 0.234 | 0.258 | 0.239 |
| NCI-H2023 | 0.973 | 0.837 | 0.947 | 0.89 | 0.214 | 0.214 | 0.254 | 0.256 | 0.679 | 0.426 | 0.668 | 0.344 | – | – | – | – | 0.668 | 0.491 | 0.47 | 0.405 |
| NCI-H2228 | 0.922 | 0.907 | 1.15 | 0.692 | – | – | – | – | 0.173 | 0.172 | 0.125 | 0.111 | – | – | – | – | 0.517 | 0.379 | 0.525 | 0.368 |
| NCI-H2342 | – | – | – | – | 0.689 | 0.737 | 0.757 | 0.819 | 0.762 | 0.732 | 0.892 | 0.738 | 0.535 | 0.509 | 0.529 | 0.582 | 0.799 | 0.849 | 0.986 | 0.95 |
| SK-LU-1 | 0.843 | 0.857 | 0.949 | 0.829 | 0.744 | 0.573 | 0.668 | 0.751 | 0.208 | 0.212 | 0.204 | 0.2 | – | – | – | – | 0.575 | 0.418 | 0.717 | 0.422 |
| SK-MES-1 | 1.35 | 1.15 | 1.4 | 1.09 | 0.382 | 0.363 | 0.389 | 0.427 | 0.928 | 0.65 | 0.859 | 0.363 | – | – | – | – | 0.629 | 0.508 | 0.492 | 0.442 |
| SW 1573 | 0.978 | 0.791 | 1.01 | 0.854 | 0.454 | 0.445 | 0.58 | 0.487 | 0.232 | 0.208 | 0.314 | 0.182 | – | – | – | – | 0.527 | 0.491 | 0.549 | 0.516 |
| UMC-11 | 0.312 | 0.28 | 0.294 | 0.248 | 0.672 | 0.51 | 0.676 | 0.61 | 1.04 | 0.804 | 0.961 | 0.695 | – | – | – | – | 0.766 | 0.623 | 0.649 | 0.577 |
